Experimental data published in ChEMBL document CHEMBL3885881, “DrugMatrix”.
“And” between values parts separate entries of the source, which are not always exact repeats. Equal entries are not always repeated.

Organism: Rattus norvegicus
Assay type: toxicity, organism-based, Sprague-Dawley
Details: in vivo, 24 h, vehicle 100 % SALINE; for ALANINE AMINOTRANSFERASE / ALKALINE PHOSPHATASE / ASPARTATE AMINOTRANSFERASE / BLOOD UREA NITROGEN / CARBON DIOXIDE / CHLORIDE / CHOLESTEROL / CREATININE / GLUCOSE / LACTATE DEHYDROGENASE / LIPASE / PHOSPHORUS / POTASSIUM / SODIUM / TOTAL BILIRUBIN / TOTAL PROTEIN / URIC ACID / ALBUMIN / CREATINE PHOSPHOKINASE: tissue Plasma
[1] = ip, 0 mg/kg, vehicle control, tissue Blood, route intraperitoneal, dose level Control, time 1 day
[2] = ip, 0 mg/kg, vehicle control, route intraperitoneal, dose level Control, time 1 day
[3] = ip, 1 mg/kg, tissue Blood, route intraperitoneal, dose level High, time 1 day
[4] = ip, 1 mg/kg, route intraperitoneal, dose level High, time 1 day
[5] = sc, 0 mg/kg, vehicle control, tissue Blood, route mini-PUMP - SUBCUTANEOUS, dose level Control, time 1 day
[6] = sc, 0 mg/kg, vehicle control, route mini-PUMP - SUBCUTANEOUS, dose level Control, time 1 day
[7] = sc, 2 mg/kg, tissue Blood, route mini-PUMP - SUBCUTANEOUS, dose level High, time 1 day
[8] = sc, 2 mg/kg, route mini-PUMP - SUBCUTANEOUS, dose level High, time 1 day
[9] = sc, […], tissue Blood, route mini-PUMP - SUBCUTANEOUS, dose 4.2 mg/Kg, dose level M1, time 1 day
[10] = sc, […], route mini-PUMP - SUBCUTANEOUS, dose 4.2 mg/Kg, dose level M1, time 1 day

Description: DrugMatrix - Regimen: Single

## CC[C@H]1CN2CCc3cc(OC)c(OC)cc3[C@@H]2C[C@@H]1C[C@H]1NCCc2cc(OC)c(OC)cc21 [EMETINE]
[1]
  ABSOLUTE EOSINOPHIL: 77.5 CELLS/uL
  ABSOLUTE LYMPHOCYTE: 12568.83 CELLS/uL
  ABSOLUTE MONOCYTE: 704.67 CELLS/uL
  ABSOLUTE SEGMENTED NEUTROPHIL: 2365.67 CELLS/uL
  BASOPHIL: 0%
  EOSINOPHIL: 0.5%
  ERYTHROCYTE COUNT: 5.83 x10E6/uL
  HEMATOCRIT: 36.08%
  HEMOGLOBIN: 13.22 G/DL
  LEUKOCYTE COUNT: 15.72 x10E3/uL
  LYMPHOCYTE: 80%
  MEAN CORPUSCULAR HEMOGLOBIN: 22.68 pg
  MEAN CORPUSCULAR HEMOGLOBIN CONCENTRATION: 36.63 G/DL
  MEAN CORPUSCULAR VOLUME: 61.88 fL
  MONOCYTE: 4.5%
  NEUTROPHIL: 15%
  NUCLEATED RED BLOOD CELLS: 0 /100WBC
  PLATELET COUNT: 1020.5 x10E3/uL
[2]
  ALANINE AMINOTRANSFERASE: 43.33 u/L
  ALKALINE PHOSPHATASE: 368 u/L
  ASPARTATE AMINOTRANSFERASE: 93 u/L
  BLOOD UREA NITROGEN: 12.33 mg/dL
  CARBON DIOXIDE: 27.17 mmol/L
  CHLORIDE: 99.5 MEQ/L
  CHOLESTEROL: 65.67 mg/dL
  CREATININE: 0.23 mg/dL
  GLUCOSE: 181.67 mg/dL
  LACTATE DEHYDROGENASE: 380.17 u/L
  LIPASE: 9.33 u/L
  PHOSPHORUS: 13.1 mg/dL
  POTASSIUM: 6.28 MEQ/L
  SODIUM: 143.03 MEQ/L
  TOTAL BILIRUBIN: 0.18 mg/dL
  TOTAL PROTEIN: 6.12 G/DL
  URIC ACID: 2.47 mg/dL
[3]
  ABSOLUTE EOSINOPHIL: 92 CELLS/uL
  ABSOLUTE LYMPHOCYTE: 11430 CELLS/uL
  ABSOLUTE MONOCYTE: 510 CELLS/uL
  ABSOLUTE SEGMENTED NEUTROPHIL: 1901.33 CELLS/uL
  BASOPHIL: 0%
  EOSINOPHIL: 0.67%
  ERYTHROCYTE COUNT: 5.8 x10E6/uL
  HEMATOCRIT: 35.23%
  HEMOGLOBIN: 12.63 G/DL
  LEUKOCYTE COUNT: 13.93 x10E3/uL
  LYMPHOCYTE: 82%
  MEAN CORPUSCULAR HEMOGLOBIN: 21.77 pg
  MEAN CORPUSCULAR HEMOGLOBIN CONCENTRATION: 35.87 G/DL
  MEAN CORPUSCULAR VOLUME: 60.83 fL
  MONOCYTE: 3.67%
  NEUTROPHIL: 13.67%
  NUCLEATED RED BLOOD CELLS: 0 /100WBC
  PLATELET COUNT: 1110.67 x10E3/uL
[4]
  ALANINE AMINOTRANSFERASE: 45.67 u/L
  ALKALINE PHOSPHATASE: 344 u/L
  ASPARTATE AMINOTRANSFERASE: 124 u/L
  BLOOD UREA NITROGEN: 13.33 mg/dL
  CARBON DIOXIDE: 27 mmol/L
  CHLORIDE: 100 MEQ/L
  CHOLESTEROL: 66.67 mg/dL
  CREATININE: 0.22 mg/dL
  GLUCOSE: 182 mg/dL
  LACTATE DEHYDROGENASE: 467.33 u/L
  LIPASE: 9.33 u/L
  PHOSPHORUS: 14.17 mg/dL
  POTASSIUM: 6.56 MEQ/L
  SODIUM: 143.9 MEQ/L
  TOTAL BILIRUBIN: 0.17 mg/dL
  TOTAL PROTEIN: 6.07 G/DL
  URIC ACID: 2.17 mg/dL

## CC(C)NCC(O)c1ccc(O)c(O)c1 (stereo not drawn) [ISOPROTERENOL]
[5]
  ABSOLUTE SEGMENTED NEUTROPHIL: 1753.5 CELLS/uL
  BASOPHIL: 0.4% and 0%
  EOSINOPHIL: 0.3% and 0.17%
  ERYTHROCYTE COUNT: 6.25 x10E6/uL and 5.64 x10E6/uL
  HEMATOCRIT: 41.8% and 34.52%
  HEMOGLOBIN: 13.33 G/DL and 12.68 G/DL
  LEUKOCYTE COUNT: 11.55 x10E3/uL and 13 x10E3/uL
  LYMPHOCYTE: 72.6% and 84.5%
  MEAN CORPUSCULAR HEMOGLOBIN: 21.37 pg and 22.5 pg
  MONOCYTE: 2.4% and 1.83%
  NEUTROPHIL: 23.4% and 13.5%
  NUCLEATED RED BLOOD CELLS: 0.17 /100WBC
  PLATELET COUNT: 1265.33 x10E3/uL and 679.17 x10E3/uL
[6]
  ALANINE AMINOTRANSFERASE: 40.33 u/L and 42.67 u/L
  ALBUMIN: 3.63 G/DL and 3.77 G/DL
  ALKALINE PHOSPHATASE: 385.33 u/L and 291.17 u/L
  ASPARTATE AMINOTRANSFERASE: 79.33 u/L and 74.5 u/L
  BLOOD UREA NITROGEN: 13.33 mg/dL and 15.33 mg/dL
  CARBON DIOXIDE: 40.67 mmol/L and 30 mmol/L
  CHLORIDE: 103 MEQ/L and 100.83 MEQ/L
  CHOLESTEROL: 86.33 mg/dL and 65.33 mg/dL
  CREATINE PHOSPHOKINASE: 190.33 u/L
  CREATININE: 0.4 mg/dL and 0.15 mg/dL
  GLUCOSE: 165.67 mg/dL and 179.83 mg/dL
  LACTATE DEHYDROGENASE: 103.33 u/L and 162.67 u/L
  PHOSPHORUS: 11.7 mg/dL and 12.2 mg/dL
  POTASSIUM: 5.5 MEQ/L and 5.73 MEQ/L
  SODIUM: 145 MEQ/L and 144.7 MEQ/L
  TOTAL BILIRUBIN: 0.27 mg/dL and 0.15 mg/dL
  TOTAL PROTEIN: 5.87 G/DL
  URIC ACID: 1 mg/dL and 1.93 mg/dL
[7]
  ABSOLUTE BASOPHIL: 13.3 cells/µL
  ABSOLUTE EOSINOPHIL: 56.7 cells/µL
  ABSOLUTE LYMPHOCYTE: 4960 cells/µL
  ABSOLUTE MONOCYTE: 150 cells/µL
  BASOPHIL: 0.2%
  EOSINOPHIL: 0.83%
  ERYTHROCYTE COUNT: 5.65 x10E6/uL
  HEMATOCRIT: 36.77%
  HEMOGLOBIN: 11.77 G/DL
  LEUKOCYTE COUNT: 6.69 x10E3/uL
  LYMPHOCYTE: 74.03%
  MEAN CORPUSCULAR HEMOGLOBIN: 20.8 pg
  MEAN CORPUSCULAR HEMOGLOBIN CONCENTRATION: 31.97 G/DL
  MEAN CORPUSCULAR VOLUME: 65.1 fL
  MONOCYTE: 2.3%
  NEUTROPHIL: 22.1%
  PLATELET COUNT: 1167.67 x10E3/uL
[8]
  ALANINE AMINOTRANSFERASE: 33 u/L
  ALBUMIN: 3.6 G/DL
  ALKALINE PHOSPHATASE: 400 u/L
  ASPARTATE AMINOTRANSFERASE: 86.67 u/L
  BLOOD UREA NITROGEN: 14.67 mg/dL
  CARBON DIOXIDE: 33 mmol/L
  CHLORIDE: 106.67 MEQ/L
  CHOLESTEROL: 105 mg/dL
  CREATINE PHOSPHOKINASE: 281.33 u/L
  CREATININE: 0.6 mg/dL
  GLUCOSE: 99.33 mg/dL
  LACTATE DEHYDROGENASE: 93 u/L
  LIPASE: 24.67 u/L
  PHOSPHORUS: 11.33 mg/dL
  POTASSIUM: 5.6 MEQ/L
  SODIUM: 146 MEQ/L
  TOTAL BILIRUBIN: 0.2 mg/dL
  TOTAL PROTEIN: 5.87 G/DL
  URIC ACID: 0.93 mg/dL
[9]
  ABSOLUTE EOSINOPHIL: 59.67 CELLS/uL
  ABSOLUTE LYMPHOCYTE: 9880 CELLS/uL
  ABSOLUTE MONOCYTE: 232.33 CELLS/uL
  ABSOLUTE SEGMENTED NEUTROPHIL: 3561.33 CELLS/uL
  BASOPHIL: 0%
  EOSINOPHIL: 0.33%
  ERYTHROCYTE COUNT: 5.17 x10E6/uL
  HEMATOCRIT: 30.7%
  HEMOGLOBIN: 11.47 G/DL
  LEUKOCYTE COUNT: 13.73 x10E3/uL
  LYMPHOCYTE: 71.67%
  MEAN CORPUSCULAR HEMOGLOBIN: 22.2 pg
  MEAN CORPUSCULAR HEMOGLOBIN CONCENTRATION: 37.33 G/DL
  MEAN CORPUSCULAR VOLUME: 59.43 fL
  MONOCYTE: 1.67%
  NEUTROPHIL: 26.33%
  NUCLEATED RED BLOOD CELLS: 0 /100WBC
  PLATELET COUNT: 1159 x10E3/uL
[10]
  ALANINE AMINOTRANSFERASE: 55.33 u/L
  ALBUMIN: 3.73 G/DL
  ALKALINE PHOSPHATASE: 326.67 u/L
  ASPARTATE AMINOTRANSFERASE: 83 u/L
  BLOOD UREA NITROGEN: 14 mg/dL
  CARBON DIOXIDE: 28.67 mmol/L
  CHLORIDE: 100.67 MEQ/L
  CHOLESTEROL: 89.67 mg/dL
  CREATININE: 0.13 mg/dL
  GLUCOSE: 154 mg/dL
  LACTATE DEHYDROGENASE: 126.67 u/L
  LIPASE: 8.67 u/L
  PHOSPHORUS: 14.57 mg/dL
  POTASSIUM: 6.55 MEQ/L
  SODIUM: 144.37 MEQ/L
  TOTAL BILIRUBIN: 0.1 mg/dL
  TOTAL PROTEIN: 6.03 G/DL
  URIC ACID: 2.43 mg/dL
